This is an account of results in PubChem BioAssay (NCI).

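The compound was tested at five concentrations on cells cultured in 96-well plates, with a 48-hour exposure period. GI50 marks 50% less growth. TGI denotes the concentration required for complete inhibition of growth.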 Where only a bound is given, the exact number is not on record here.

Test systems include HCT-15 colon; HT29 colon; NCI-H23 lung; NCI-H460 lung; SW-620 colon; TK-10 renal; UACC-257 melanoma.
Assay in all cases: NCI anticancer screen, dose series, 48 h

For the molecule `Cc1ncc([N+](=O)[O-])n1CCNC(=O)Cn1c([N+](=O)[O-])cnc1C`, the TGI in the test on HCT-15 colon, in the test on HT29 colon, in the test on NCI-H23 lung, in the test on NCI-H460 lung, in the test on SW-620 colon and in the test with TK-10 renal was more than 100 µM throughout. The same molecule came in with a TGI with UACC-257 melanoma of more than 100 µM.

For `CC(=O)c1cc(C)n2c1CS[C@@H]2c1ccccc1`, the TGI in the test on HCT-15 colon, in the test with HT29 colon, in the test on NCI-H23 lung, with SW-620 colon, in the test on TK-10 renal and in the test on UACC-257 melanoma was more than 100 µM in each case.

In the case of `Cc1ccc2c(=O)cc(-c3sc4ccccc4c3C)[nH]c2n1`, the TGI in the test on HCT-15 colon is 73.8 µM; in the test on HT29 colon it was 78.1 µM; with NCI-H23 lung it was 48.1 µM; with SW-620 colon, 65.8 µM; with TK-10 renal it was more than 100 µM; in the test with UACC-257 melanoma, more than 100 µM. Also, the values for the GI50 in the test on NCI-H23 lung and in the test on SW-620 colon were 19.7 µM and 19.8 µM, respectively.

As for `CC1=NN=C(N)NC1=CC(Sc1ccc(Cl)cc1)c1c(O)ccc2ccccc12` (stereo unspecified), the TGI in the test with HCT-15 colon was more than 63.3 µM; with HT29 colon, 48.4 µM; in the test on NCI-H23 lung, 51.6 µM; in the test on NCI-H460 lung, 45.1 µM; with SW-620 colon it was more than 100 µM; in the test with TK-10 renal it was more than 100 µM. This molecule also yielded a TGI in the test with UACC-257 melanoma of more than 87.1 µM.

Regarding `FC1=C2CCCCCC2SC1(F)F` (stereo unspecified), the TGI is more than 100 µM with HCT-15 colon; more than 100 µM in the test with HT29 colon; more than 100 µM in the test on NCI-H23 lung; 28.9 µM with SW-620 colon; more than 100 µM with TK-10 renal; more than 100 µM with UACC-257 melanoma.

On to `CCOC(=O)c1c(N2CCCC2)[nH]c(=O)c(C(c2cccs2)c2c(O)c(C(=O)OCC)c(N3CCCC3)[nH]c2=O)c1O`, for which the TGI in the test with HCT-15 colon, in the test with HT29 colon, in the test on NCI-H23 lung, in the test with NCI-H460 lung, in the test on SW-620 colon and in the test on TK-10 renal was more than 100 µM in each case. The same molecule yielded a TGI in the test with UACC-257 melanoma of more than 100 µM.

Consider `CC1(C)O[C@@H](CBr)C[C@H](C[C@H]2C[C@@H](O)C[C@@H](CCOCc3ccccc3)O2)O1`, for which the TGI in the test on HCT-15 colon is 57.1 µM; with NCI-H23 lung, 36.7 µM; with NCI-H460 lung it was 87.1 µM; with SW-620 colon, more than 100 µM; in the test on TK-10 renal it was 38.3 µM; with UACC-257 melanoma, 37.8 µM.

In the case of `CC(C)(C)OC(=O)N(CCCCNCc1ccc2ccccc2c1)CCCNCc1ccc2ccccc2c1`, the TGI in the test with HCT-15 colon is 3.12 µM; in the test on HT29 colon it was 2.17 µM; with NCI-H23 lung, 3.42 µM; in the test with NCI-H460 lung, 2.18 µM; in the test with SW-620 colon, 3.54 µM; in the test with TK-10 renal, 3.07 µM. This molecule came in with a TGI in the test on UACC-257 melanoma of 3.42 µM.

For `Cc1cccc2c(=O)c3cccc([C@@H](C)C(=O)O)c3oc12`, the TGI in the test with HCT-15 colon, in the test with HT29 colon, in the test with NCI-H23 lung, with NCI-H460 lung, in the test on SW-620 colon and in the test on TK-10 renal was more than 100 µM each time. The TGI in the test with UACC-257 melanoma is more than 100 µM.

On to `c1ccc2cc3c(cc2c1)nc1ccccn13`, for which the TGI in the test on HCT-15 colon, in the test on NCI-H23 lung, with SW-620 colon, in the test with TK-10 renal and with UACC-257 melanoma was more than 100 µM throughout.

As to `COC(=O)c1c(-c2ccccc2)c2sc3ccccc3n2c1N`, the TGI in the test with HCT-15 colon, with HT29 colon, with NCI-H23 lung, with NCI-H460 lung, in the test on TK-10 renal and in the test with UACC-257 melanoma was more than 100 µM throughout.

In the case of `CC(C)C(NCc1c(O)ccc2c(-c3ccccc3)cc(=O)oc12)C(=O)O` (stereo unspecified), the TGI with HCT-15 colon, with HT29 colon, in the test on NCI-H23 lung, in the test with NCI-H460 lung, with SW-620 colon and in the test with TK-10 renal was more than 100 µM throughout. Further, the TGI in the test with UACC-257 melanoma is more than 100 µM.

`O=c1ccn(C2OC(CN(O)CCC3C(CO)OC(n4ccc(=O)[nH]c4=O)C3O)C(O)C2O)c(=O)[nH]1` (stereo unspecified): the TGI in the test with HCT-15 colon, in the test with HT29 colon, in the test with NCI-H23 lung, with NCI-H460 lung, with SW-620 colon and with TK-10 renal was more than 100 µM in each case. The molecule also came in with a TGI in the test with UACC-257 melanoma of more than 100 µM.

In the case of `C/C(=N\Nc1nc2ccccc2s1)c1cc(C)ncn1`, the TGI in the test on HCT-15 colon was 13 µM; with HT29 colon it was more than 34.6 µM; with NCI-H23 lung it was 15.7 µM; in the test on NCI-H460 lung, 9.16 µM; in the test with SW-620 colon, more than 53.2 µM; in the test on TK-10 renal it was more than 100 µM. In the test with UACC-257 melanoma, this molecule gave a TGI of more than 27.2 µM.

Consider `O=c1oc2ccc([N+](=O)[O-])cc2c(Nc2ccc3c(c2)S(=O)(=O)c2ccccc2O3)c1[N+](=O)[O-]`, for which the TGI in the test on HCT-15 colon, in the test on HT29 colon, with NCI-H23 lung, in the test on NCI-H460 lung, with SW-620 colon and in the test with TK-10 renal was more than 100 µM throughout. In the test on UACC-257 melanoma, the TGI is more than 100 µM.

With `N#CC(C#N)=Cn1c(=S)[nH]c2ccccc21`, the TGI with HT29 colon, in the test with NCI-H23 lung, in the test with NCI-H460 lung, in the test on SW-620 colon, in the test on TK-10 renal and in the test with UACC-257 melanoma was more than 100 µM in each case.

`COc1cc2c(cc1OC)C(=O)N(NC1=NCCN1)C2=O`: the TGI with HCT-15 colon, with HT29 colon, with NCI-H23 lung, in the test on NCI-H460 lung, in the test on SW-620 colon and in the test on TK-10 renal was more than 100 µM throughout. This molecule returned a TGI with UACC-257 melanoma of more than 100 µM.

On to `CCN(CC)CCO/N=C1/C=C2CCC3C(CC[C@@]4(C)C3CC[C@]4(C)O)[C@@]2(C)CC1` (stereo partly specified), for which the TGI in the test on HCT-15 colon worked out at 13.7 µM; in the test on HT29 colon, 5.35 µM; in the test with NCI-H23 lung, 29 µM; in the test on NCI-H460 lung, 15.3 µM; in the test with TK-10 renal it was 45.1 µM; with UACC-257 melanoma, 18.2 µM.

Take `CC(C)C(NC(=O)C(Cc1ccccc1)NC(=O)[C@H]1CCC[C@H]1NC(=O)C(N)Cc1ccc(O)cc1)C(N)=O` (stereo partly specified): the TGI in the test on HCT-15 colon, in the test on HT29 colon, with NCI-H23 lung, in the test with NCI-H460 lung, in the test on SW-620 colon and in the test with TK-10 renal was more than 100 µM each time. The TGI in the test on UACC-257 melanoma is more than 100 µM.
